Assay results published in US20230141603A1, “BENZODIAZEPINE DERIVATIVES AS GABA A GAMMA1 PAM” (Hoffmann-La Roche Inc., priority 2021, published 2023).

Assays:
h-GABAA α1β2γ1 = target: T1, h-GABAA α1β2γ1 (Homo sapiens, UniProt P14867+Q8N1C3); experiment: Radioligand binding assay, [3H]RO7239181 competition, HEK293F membranes
T1 construct: expressed in transfected cells; host or cells: HEK293F cells (ThermoFisher R79007), membranes
T1 sequence (P14867 28-456): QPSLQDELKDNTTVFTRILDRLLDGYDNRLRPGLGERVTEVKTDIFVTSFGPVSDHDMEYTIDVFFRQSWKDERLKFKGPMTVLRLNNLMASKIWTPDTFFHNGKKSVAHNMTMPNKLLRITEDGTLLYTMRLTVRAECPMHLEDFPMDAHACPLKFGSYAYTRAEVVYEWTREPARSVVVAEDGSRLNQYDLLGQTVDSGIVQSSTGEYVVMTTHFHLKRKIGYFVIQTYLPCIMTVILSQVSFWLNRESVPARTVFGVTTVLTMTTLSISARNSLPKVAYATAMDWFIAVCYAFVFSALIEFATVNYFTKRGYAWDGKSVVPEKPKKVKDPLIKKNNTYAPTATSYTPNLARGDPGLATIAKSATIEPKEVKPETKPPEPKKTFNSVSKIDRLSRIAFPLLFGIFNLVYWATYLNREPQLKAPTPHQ
T1 sequence (P47870 25-512 partner limits assumed): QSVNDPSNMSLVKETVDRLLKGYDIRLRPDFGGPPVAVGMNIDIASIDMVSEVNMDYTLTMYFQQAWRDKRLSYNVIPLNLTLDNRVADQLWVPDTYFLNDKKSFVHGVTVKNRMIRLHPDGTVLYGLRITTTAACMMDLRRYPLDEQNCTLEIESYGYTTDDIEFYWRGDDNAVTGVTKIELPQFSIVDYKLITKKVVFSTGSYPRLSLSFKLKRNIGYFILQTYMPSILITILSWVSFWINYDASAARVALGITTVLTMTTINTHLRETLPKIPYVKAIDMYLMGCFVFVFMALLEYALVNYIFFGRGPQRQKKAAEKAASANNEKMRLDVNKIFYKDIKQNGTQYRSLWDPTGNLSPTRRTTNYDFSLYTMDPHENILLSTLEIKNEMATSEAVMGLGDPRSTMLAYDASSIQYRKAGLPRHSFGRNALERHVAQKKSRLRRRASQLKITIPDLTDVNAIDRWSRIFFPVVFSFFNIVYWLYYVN
T1 sequence (Q8N1C3 36-465): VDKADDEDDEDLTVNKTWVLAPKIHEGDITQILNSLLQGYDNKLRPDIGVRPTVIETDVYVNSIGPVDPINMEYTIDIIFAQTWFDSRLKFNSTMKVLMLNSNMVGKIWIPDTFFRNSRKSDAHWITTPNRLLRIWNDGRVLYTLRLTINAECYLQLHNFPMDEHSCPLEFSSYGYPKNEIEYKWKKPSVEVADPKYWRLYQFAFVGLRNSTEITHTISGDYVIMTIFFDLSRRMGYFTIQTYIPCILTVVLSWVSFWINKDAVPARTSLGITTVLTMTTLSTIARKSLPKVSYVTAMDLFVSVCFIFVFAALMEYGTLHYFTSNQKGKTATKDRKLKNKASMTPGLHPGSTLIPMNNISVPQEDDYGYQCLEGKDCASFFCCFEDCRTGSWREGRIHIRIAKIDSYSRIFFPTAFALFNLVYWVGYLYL

h-GABAA α1β3γ2 = target: T2, h-GABAA α1β3γ2 (Homo sapiens, UniProt P14867+P18507); experiment: Radioligand binding assay, [3H]Flumazenil competition, HEK293F membranes; conditions: for γ2/γ1 Selectivity Ratio: Ki α1β3γ2 (nM)/Ki α2β2γ1 (nM); for LogSel: Log[Ki α1β3γ2 (nM)/Ki α2β2γ1 (nM)]
T2 construct: expressed in transfected cells; host or cells: HEK293F cells, membranes
Outline: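 [3H]Flumazenil competition binding on membranes from HEK293F cells transiently expressing human α1β3γ2 receptors. Incubation to equilibrium for 1 h at 4 °C, then filtration and scintillation counting. Ki is the mean of two determinations.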

Fc1ccccc1C1=NCc2nnc(-c3cccnn3)n2-c2ccc(Cl)c(Cl)c21 [Example 10, 7,8-dichloro-6-(2-fluorophenyl)-1-pyridazin-3-yl-4H-[1,2,4]triazolo[4,3-a][1,4]benzodiazepine]
Ki (h-GABAA α1β2γ1): 25.8 nM | Ki (h-GABAA α1β3γ2): 645 nM | γ2/γ1 Selectivity Ratio (h-GABAA α1β3γ2; Table 1): 67.7 | LogSel (h-GABAA α1β3γ2; Table 1): 1.83

COCCc1nnc2n1-c1ccc(Cl)c(Cl)c1C(c1c(F)cccc1F)=NC2 [Example 19, 7,8-dichloro-6-(2,6-difluorophenyl)-1-(2-methoxyethyl)-4H-[1,2,4]triazolo[4,3-a][1,4]benzodiazepine]
Ki (h-GABAA α1β2γ1): 43.9 nM | Ki (h-GABAA α1β3γ2): 829 nM | γ2/γ1 Selectivity Ratio (h-GABAA α1β3γ2; Table 1): 31.9 | LogSel (h-GABAA α1β3γ2; Table 1): 1.50

Cc1nnc2n1-c1ccc(I)c(Cl)c1C(c1c(F)cccc1F)=NC2 [Example 41, 7-chloro-6-(2,6-difluorophenyl)-8-iodo-1-methyl-4H-[1,2,4]triazolo[4,3-a][1,4]benzodiazepine]
Ki (h-GABAA α1β2γ1): 4.8 nM | Ki (h-GABAA α1β3γ2): 121 nM | γ2/γ1 Selectivity Ratio (h-GABAA α1β3γ2; Table 1): 21.9 | LogSel (h-GABAA α1β3γ2; Table 1): 1.34

Cc1ccc2c(c1Cl)C(c1c(F)cccc1F)=NCc1nnc(-c3ccncn3)n1-2 [Example 49, 7-chloro-6-(2,6-difluorophenyl)-8-methyl-1-pyrimidin-4-yl-4H-[1,2,4]triazolo[4,3-a][1,4]benzodiazepine]
Ki (h-GABAA α1β2γ1): 40.5 nM | Ki (h-GABAA α1β3γ2): 1470 nM | γ2/γ1 Selectivity Ratio (h-GABAA α1β3γ2; Table 1): 104.3 | LogSel (h-GABAA α1β3γ2; Table 1): 2.02

O=c1[nH]nc2n1-c1ccc(Cl)c(Cl)c1C(c1ncccc1F)=NC2 [Example 59, 7,8-dichloro-6-(3-fluoro-2-pyridyl)-2,4-dihydro-[1,2,4]triazolo[4,3-a][1,4]benzodiazepin-1-one]
Ki (h-GABAA α1β2γ1): 54 nM | Ki (h-GABAA α1β3γ2): 577 nM | γ2/γ1 Selectivity Ratio (h-GABAA α1β3γ2; Table 1): 21.9 | LogSel (h-GABAA α1β3γ2; Table 1): 1.34

Fc1cccnc1C1=NCc2nncn2-c2ccc(Cl)c(Cl)c21 [Example 60, 7,8-dichloro-6-(3-fluoro-2-pyridyl)-4H-[1,2,4]triazolo[4,3-a][1,4]benzodiazepine]
Ki (h-GABAA α1β2γ1): 161 nM | Ki (h-GABAA α1β3γ2): 1110 nM | γ2/γ1 Selectivity Ratio (h-GABAA α1β3γ2; Table 1): 28.6 | LogSel (h-GABAA α1β3γ2; Table 1): 1.46

Cn1cc(-c2nnc3n2-c2ccc(Cl)c(Cl)c2C(c2c(F)cccc2F)=NC3)cn1 [Example 28, 7,8-dichloro-6-(2,6-difluorophenyl)-1-(1-methylpyrazol-4-yl)-4H-[1,2,4]triazolo[4,3-a][1,4]benzodiazepine]
Ki (h-GABAA α1β2γ1): 12.6 nM | Ki (h-GABAA α1β3γ2): 293 nM | γ2/γ1 Selectivity Ratio (h-GABAA α1β3γ2; Table 1): 31.1 | LogSel (h-GABAA α1β3γ2; Table 1): 1.49

Fc1ccccc1C1=NCc2nnc(-c3cccnn3)n2-c2ccc(C(F)(F)F)c(Cl)c21 [Example 27, 7-chloro-6-(2-fluorophenyl)-1-pyridazin-3-yl-8-(trifluoromethyl)-4H-[1,2,4]triazolo[4,3-a][1,4]benzodiazepine]
Ki (h-GABAA α1β2γ1): 288 nM | Ki (h-GABAA α1β3γ2): 4800 nM | γ2/γ1 Selectivity Ratio (h-GABAA α1β3γ2; Table 1): 56.7 | LogSel (h-GABAA α1β3γ2; Table 1): 1.75

COc1ccc2c(c1Cl)C(c1c(F)cccc1F)=NCc1nnc(-c3cccnc3)n1-2 [Example 62, 7-chloro-6-(2,6-difluorophenyl)-8-methoxy-1-(3-pyridyl)-4H-[1,2,4]triazolo[4,3-a][1,4]benzodiazepine]
Ki (h-GABAA α1β2γ1): 161 nM | Ki (h-GABAA α1β3γ2): 2150 nM | γ2/γ1 Selectivity Ratio (h-GABAA α1β3γ2; Table 1): 38.9 | LogSel (h-GABAA α1β3γ2; Table 1): 1.59

Fc1cccnc1C1=NCc2nnc(-c3ccncn3)n2-c2ccc(C(F)(F)F)c(Cl)c21 [Example 69, 7-chloro-6-(3-fluoro-2-pyridyl)-1-pyrimidin-4-yl-8-(trifluoromethyl)-4H-[1,2,4]triazolo[4,3-a][1,4]benzodiazepine]
Ki (h-GABAA α1β2γ1): 139 nM | Ki (h-GABAA α1β3γ2): 10600 nM | γ2/γ1 Selectivity Ratio (h-GABAA α1β3γ2; Table 1): 166.3 | LogSel (h-GABAA α1β3γ2; Table 1): 2.22

Fc1cccc(F)c1C1=NCc2nnc(-c3cccnn3)n2-c2ccc(Br)c(Br)c21 [Example 42, 7,8-dibromo-6-(2,6-difluorophenyl)-1-pyridazin-3-yl-4H-[1,2,4]triazolo[4,3-a][1,4]benzodiazepine]
Ki (h-GABAA α1β2γ1): 7.2 nM | Ki (h-GABAA α1β3γ2): 243 nM | γ2/γ1 Selectivity Ratio (h-GABAA α1β3γ2; Table 1): 44.2 | LogSel (h-GABAA α1β3γ2; Table 1): 1.65

Fc1cccc(F)c1C1=NCc2nnc(-c3cccnn3)n2-c2ccc(Cl)c(Cl)c21 [Example 14, 7,8-dichloro-6-(2,6-difluorophenyl)-1-pyridazin-3-yl-4H-[1,2,4]triazolo[4,3-a][1,4]benzodiazepine]
Ki (h-GABAA α1β2γ1): 5.2 nM | Ki (h-GABAA α1β3γ2): 299 nM | γ2/γ1 Selectivity Ratio (h-GABAA α1β3γ2; Table 1): 86.6 | LogSel (h-GABAA α1β3γ2; Table 1): 1.94 | γ2/γ1 Selectivity Ratio (h-GABAA α1β3γ2; Table 3): 86.6 | LogSel (h-GABAA α1β3γ2; Table 3): 1.9

Fc1cccc(F)c1C1=NCc2nnc(-c3cccnn3)n2-c2ccc(C(F)(F)F)c(Cl)c21 [Example 38, 7-chloro-6-(2,6-difluorophenyl)-1-pyridazin-3-yl-8-(trifluoromethyl)-4H-[1,2,4]triazolo[4,3-a][1,4]benzodiazepine]
Ki (h-GABAA α1β2γ1): 28 nM | Ki (h-GABAA α1β3γ2): 1430 nM | γ2/γ1 Selectivity Ratio (h-GABAA α1β3γ2; Table 1): 113.4 | LogSel (h-GABAA α1β3γ2; Table 1): 2.05

Fc1cccc(F)c1C1=NCc2nnc(-c3ccncn3)n2-c2ccc(Br)c(Br)c21 [Example 43, 7,8-dibromo-6-(2,6-difluorophenyl)-1-pyrimidin-4-yl-4H-[1,2,4]triazolo[4,3-a][1,4]benzodiazepine]
Ki (h-GABAA α1β2γ1): 8.4 nM | Ki (h-GABAA α1β3γ2): 510 nM | γ2/γ1 Selectivity Ratio (h-GABAA α1β3γ2; Table 1): 88.5 | LogSel (h-GABAA α1β3γ2; Table 1): 1.95

Cc1nnc2n1-c1ccc(C3CC3)c(Cl)c1C(c1c(F)cccc1F)=NC2 [Example 6, 7-chloro-8-cyclopropyl-6-(2,6-difluorophenyl)-1-methyl-4H-[1,2,4]triazolo[4,3-a][1,4]benzodiazepine]
Ki (h-GABAA α1β2γ1): 237 nM | Ki (h-GABAA α1β3γ2): 965 nM | γ2/γ1 Selectivity Ratio (h-GABAA α1β3γ2; Table 1): 10.3 | LogSel (h-GABAA α1β3γ2; Table 1): 1.01
